Experimental data as given in patent US8084649B2, “Herbicides” (Syngenta Crop Protection, inc., priority 2007, dated 2011).

Tests used:
Format in all cases: in vivo
Avena fatua (AVEFA) [1] = experiment: Pre-emergence herbicidal activity, glasshouse pot test; details: rate 500 g/ha, evaluated after 20 days; for pest or weed control at 500 g/ha: Avena fatua, 480 h, read-out: Pre-emergence activity, AVEFA (100=total damage to plant; 0=no damage to plant)
Method in brief: (§1)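 Damage was rated visually 20 days after treatment, from 0 (none) to 100 (plant killed). Treatment was a pre-emergence spray of aqueous formulated compound applied to pots sown one day earlier in sterilised soil, with plants then kept under optimum greenhouse conditions.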

Lolium perenne (LOLPE) [2] = experiment: as above; details: rate 500 g/ha, evaluated after 20 days; for pest or weed control at 500 g/ha: Lolium perenne, 480 h, read-out: Pre-emergence activity, LOLPE (100=total damage to plant; 0=no damage to plant)
Method in brief: as §1

Setaria faberi (SETFA) [3] = experiment: as above; details: rate 500 g/ha, evaluated after 20 days; for pest or weed control at 500 g/ha: Setaria faberi, 480 h, read-out: Pre-emergence activity, SETFA (100=total damage to plant; 0=no damage to plant)
Method in brief: as §1

[4] = system: Digitaria sanguinalis (DIGSA); experiment: as above; details: rate 500 g/ha, evaluated after 20 days; for pest or weed control at 500 g/ha: Digitaria sanguinalis, 480 h, read-out: Pre-emergence activity, DIGSA (100=total damage to plant; 0=no damage to plant)
Method in brief: as §1

[5] = system: Alopecurus myosuroides (ALOMY); experiment: as above; details: rate 500 g/ha, evaluated after 20 days; for pest or weed control at 500 g/ha: Alopecurus myosuroides, 480 h, read-out: Pre-emergence activity, ALOMY (100=total damage to plant; 0=no damage to plant)
Method in brief: as §1

[6] = system: Echinochloa crus-galli (ECHCG); experiment: as above; details: rate 500 g/ha, evaluated after 20 days; for pest or weed control at 500 g/ha: Echinochloa crus-galli, 480 h, read-out: Pre-emergence activity, ECHCG (100=total damage to plant; 0=no damage to plant)
Method in brief: as §1

Avena fatua (AVEFA) [7] = experiment: Post-emergence herbicidal activity, glasshouse pot test; details: evaluated after 14 or 15 days; for pest or weed control at 500 g/ha / pest or weed control at 125 g/ha: Avena fatua, read-out: Post-emergence activity, AVEFA (100=total damage to plant; 0=no damage to plant); for pest or weed control at 125 g/ha: rate 125 g/ha
Method in brief: (§2)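 Post-emergence: plants sown in sterilised standard soil, grown 10 days in glasshouse, then sprayed with aqueous solution of active ingredient formulated in acetone with Emulsogen EL, N-methylpyrrolidone, dipropylene glycol monomethyl ether and X-77. Evaluated 14 or 15 days later; scored 0 (no damage) to 100 (total damage).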

Lolium perenne (LOLPE) [8] = experiment: as above; details: evaluated after 14 or 15 days; for pest or weed control at 500 g/ha / pest or weed control at 125 g/ha: Lolium perenne, read-out: Post-emergence activity, LOLPE (100=total damage to plant; 0=no damage to plant); for pest or weed control at 125 g/ha: rate 125 g/ha
Method in brief: as §2

Setaria faberi (SETFA) [9] = experiment: as above; details: evaluated after 14 or 15 days; for pest or weed control at 500 g/ha / pest or weed control at 125 g/ha: Setaria faberi, read-out: Post-emergence activity, SETFA (100=total damage to plant; 0=no damage to plant); for pest or weed control at 125 g/ha: rate 125 g/ha
Method in brief: as §2

[10] = system: Digitaria sanguinalis (DIGSA); experiment: as above; details: evaluated after 14 or 15 days; for pest or weed control at 500 g/ha / pest or weed control at 125 g/ha: Digitaria sanguinalis, read-out: Post-emergence activity, DIGSA (100=total damage to plant; 0=no damage to plant); for pest or weed control at 125 g/ha: rate 125 g/ha
Method in brief: as §2

[11] = system: Alopecurus myosuroides (ALOMY); experiment: as above; details: evaluated after 14 or 15 days; for pest or weed control at 500 g/ha / pest or weed control at 125 g/ha: Alopecurus myosuroides, read-out: Post-emergence activity, ALOMY (100=total damage to plant; 0=no damage to plant); for pest or weed control at 125 g/ha: rate 125 g/ha
Method in brief: as §2

[12] = system: Echinochloa crus-galli (ECHCG); experiment: as above; details: evaluated after 14 or 15 days; for pest or weed control at 500 g/ha / pest or weed control at 125 g/ha: Echinochloa crus-galli, read-out: Post-emergence activity, ECHCG (100=total damage to plant; 0=no damage to plant); for pest or weed control at 125 g/ha: rate 125 g/ha
Method in brief: as §2

| SMILES | pest or weed control at 500 g/ha (Avena fatua (AVEFA) [1]) [%] | pest or weed control at 500 g/ha (Lolium perenne (LOLPE) [2]) [%] | pest or weed control at 500 g/ha (Setaria faberi (SETFA) [3]) [%] | pest or weed control at 500 g/ha [4] [%] | pest or weed control at 500 g/ha [5] [%] | pest or weed control at 500 g/ha [6] [%] | pest or weed control at 500 g/ha (Avena fatua (AVEFA) [7]; rate 500 g/ha) [%] | pest or weed control at 500 g/ha (Lolium perenne (LOLPE) [8]; rate 500 g/ha) [%] | pest or weed control at 500 g/ha (Setaria faberi (SETFA) [9]; rate 500 g/ha) [%] | pest or weed control at 500 g/ha ([10]; rate 500 g/ha) [%] | pest or weed control at 500 g/ha ([11]; rate 500 g/ha) [%] | pest or weed control at 500 g/ha ([12]; rate 500 g/ha) [%] | pest or weed control at 125 g/ha (Avena fatua (AVEFA) [7]) [%] | pest or weed control at 125 g/ha (Lolium perenne (LOLPE) [8]) [%] | pest or weed control at 125 g/ha (Setaria faberi (SETFA) [9]) [%] | pest or weed control at 125 g/ha [10] [%] | pest or weed control at 125 g/ha [11] [%] | pest or weed control at 125 g/ha [12] [%] | other results |
| --- | --- | --- | --- | --- | --- | --- | --- | --- | --- | --- | --- | --- | --- | --- | --- | --- | --- | --- | --- |
| CCc1cc(C)cc(CC)c1C1=C(O)CC(CC(C)S(C)(=O)=O)CC1=O (stereo not drawn) [Compound T30] | 80 | 90 | 100 | 100 | 80 | 100 | 90 | 80 | 100 | 100 | 70 | 100 |  |  |  |  |  |  |  |
| CCc1cc(C)cc(CC)c1C1=C(O)CC(CCS(C)(=O)=O)CC1=O (stereo not drawn) [Compound T31] |  |  |  |  |  |  |  |  |  |  |  |  |  |  |  |  |  |  | Pre-emergence activity, AVEFA (100=total damage to plant; 0=no damage to plant) (Avena fatua (AVEFA) [1]): 80; Pre-emergence activity, LOLPE (100=total damage to plant; 0=no damage to plant) (Lolium perenne (LOLPE) [2]): 100; Pre-emergence activity, SETFA (100=total damage to plant; 0=no damage to plant) (Setaria faberi (SETFA) [3]): 100; Pre-emergence activity, DIGSA (100=total damage to plant; 0=no damage to plant) [4]: 100; Pre-emergence activity, ALOMY (100=total damage to plant; 0=no damage to plant) [5]: 80; Pre-emergence activity, ECHCG (100=total damage to plant; 0=no damage to plant) [6]: 100; Post-emergence activity, AVEFA (100=total damage to plant; 0=no damage to plant) (Avena fatua (AVEFA) [7]; rate 500 g/ha): 60; Post-emergence activity, LOLPE (100=total damage to plant; 0=no damage to plant) (Lolium perenne (LOLPE) [8]; rate 500 g/ha): 90; Post-emergence activity, SETFA (100=total damage to plant; 0=no damage to plant) (Setaria faberi (SETFA) [9]; rate 500 g/ha): 100; Post-emergence activity, DIGSA (100=total damage to plant; 0=no damage to plant) ([10]; rate 500 g/ha): 100; Post-emergence activity, ALOMY (100=total damage to plant; 0=no damage to plant) ([11]; rate 500 g/ha): 80; Post-emergence activity, ECHCG (100=total damage to plant; 0=no damage to plant) ([12]; rate 500 g/ha): 100 |
| CCCSC(C)CC1CC(=O)C(c2c(CC)cc(C)cc2CC)=C(O)C1 (stereo not drawn) [Compound T32] | 80 | 100 | 100 | 100 | 90 | 100 | 80 | 90 | 100 | 100 | 80 | 100 |  |  |  |  |  |  |  |
| CCCSC(C)CC1CC(=O)C(c2c(C)cc(C)cc2C)=C(O)C1 (stereo not drawn) [Compound T35] | 80 | 80 | 80 | 90 | 90 | 70 | 70 | 80 | 50 | 70 | 90 | 70 |  |  |  |  |  |  |  |
| CCC[S+]([O-])C(C)CC1CC(=O)C(c2c(CC)cc(C)cc2CC)=C(O)C1 (stereo not drawn) [Compound T37] | 90 | 100 | 100 | 100 | 100 | 100 | 90 | 90 | 50 | 80 | 90 | 100 |  |  |  |  |  |  |  |
| CCc1cc(C)cc(CC)c1C1=C(O)CC(CC(C)SC(C)C)CC1=O (stereo not drawn) [Compound T38] | 70 | 100 | 60 | 70 | 90 | 70 | 100 | 90 | 80 | 70 | 90 | 70 |  |  |  |  |  |  |  |
| Cc1cc(C)c(C2=C(O)CC(CC(C)SC(C)C)CC2=O)c(C)c1 (stereo not drawn) [Compound T39] | 70 | 80 | 70 | 90 | 70 | 60 |  |  |  |  |  |  | 0 | 0 | 10 | 30 | 10 | 20 |  |
| CCCS(=O)(=O)C(C)CC1CC(=O)C(c2c(C)cc(C)cc2C)=C(O)C1 (stereo not drawn) [Compound T40] | 50 | 90 | 60 | 50 | 80 | 70 |  |  |  |  |  |  | 30 | 80 | 50 | 50 | 80 | 60 |  |
| CCC[S+]([O-])C(C)CC1CC(=O)C(c2c(C)cc(C)cc2C)=C(O)C1 (stereo not drawn) [Compound T41] | 60 | 100 | 80 | 100 | 90 | 80 |  |  |  |  |  |  | 70 | 80 | 50 | 80 | 90 | 70 |  |
| CCc1cc(C)cc(CC)c1C1=C(O)CC2(CC[S+]([O-])CC2)CC1=O (stereo not drawn) [Compound T52] | 100 | 100 | 70 | 70 | 90 | 10 |  |  |  |  |  |  | 60 | 40 | 20 | 60 | 60 | 30 |  |
| CCc1cc(C)cc(CC)c1C1=C(O)CC2(CCS(=O)(=O)CC2)CC1=O [Compound T53] | 80 | 90 | 30 | 100 | 60 | 100 |  |  |  |  |  |  | 80 | 70 | 60 | 90 | 80 | 100 |  |
| CCc1cc(C)cc(CC)c1C1=C(O)CC(CC(C)S(=O)(=O)C(C)C)CC1=O (stereo not drawn) [Compound T54] | 80 | 100 | 80 | 100 | 100 | 100 |  |  |  |  |  |  | 60 | 80 | 50 | 70 | 80 | 80 |  |
